In patent US20260355325A1, “DIMER COMPOUNDS” (KESMALEA THERAPEUTICS LIMITED, priority 2023, published 2026):

Legend:
[1] = system: 22RV-1, LNCaP, and VCaP cells; experiment: AR CTG Assay (Cell Titer-Glo cell viability); assay type: cell-based; details: Cell viability in cells at 24-hour timepoint (22RV-1, LNCaP, VCaP; line not stated)
Excerpt: (§1) 22RV-1, LNCaP, and VCaP cells were obtained from ATCC (ATCC, Manassas, VA). 22RV-1 and LNCaP cells were maintained in RPMI 1640 (Invitrogen™, Waltham, MA) supplemented with 10% FBS (AusGeneX, Molendinar, Australia) and 1% penicillin/streptomycin (Invitrogen™, Waltham, MA). VCaP cells were maintained in 1:1 ratio F-12(HAM) Nutrient mixture (AdvanCell Technology, Taichung city, Taiwan) and DMEM (Invitrogen™, Waltham, MA) supplemented with 10% FBS (AusGeneX, Molendinar, Australia) and 1% penicillin/streptomycin (Invitrogen™, Waltham, MA).
Compounds were dissolved in DMSO (10 mM), serially diluted from 10 mM to 1.5 nM, and pre-incubated for 2 hours. Exponentially growing cells were seeded at 8×10^3 cells per well of 384 well plate (Corning, New York #3570). Cells were treated with compound for 24 hours. Following treatment, Cell Titer-Glo® Detection reagent (Promega Corporation, Madison, WA) was added according to manufacturer's instructions, and signal read using BMG CLARIOstar plate reader (BMG Labtech, Ortenburg, Germany). Each data point was performed in duplicate for every experiment. A GI50 value was calculated from linear regression analysis of the plots.

AR (Androgen Receptor) = molecular target: T1, AR (Androgen Receptor) (Homo sapiens, UniProt P10275); experiment: AR IFA Assay (androgen receptor degradation in LNCaP and VCaP cells); assay type: cell-based; details: AR degradation in cells (LNCaP, VCaP) at 48-hour timepoint
T1 construct: immunofluorescence degradation readout (antibody D6F11), 48 h
T1 sequence (P10275 1-920): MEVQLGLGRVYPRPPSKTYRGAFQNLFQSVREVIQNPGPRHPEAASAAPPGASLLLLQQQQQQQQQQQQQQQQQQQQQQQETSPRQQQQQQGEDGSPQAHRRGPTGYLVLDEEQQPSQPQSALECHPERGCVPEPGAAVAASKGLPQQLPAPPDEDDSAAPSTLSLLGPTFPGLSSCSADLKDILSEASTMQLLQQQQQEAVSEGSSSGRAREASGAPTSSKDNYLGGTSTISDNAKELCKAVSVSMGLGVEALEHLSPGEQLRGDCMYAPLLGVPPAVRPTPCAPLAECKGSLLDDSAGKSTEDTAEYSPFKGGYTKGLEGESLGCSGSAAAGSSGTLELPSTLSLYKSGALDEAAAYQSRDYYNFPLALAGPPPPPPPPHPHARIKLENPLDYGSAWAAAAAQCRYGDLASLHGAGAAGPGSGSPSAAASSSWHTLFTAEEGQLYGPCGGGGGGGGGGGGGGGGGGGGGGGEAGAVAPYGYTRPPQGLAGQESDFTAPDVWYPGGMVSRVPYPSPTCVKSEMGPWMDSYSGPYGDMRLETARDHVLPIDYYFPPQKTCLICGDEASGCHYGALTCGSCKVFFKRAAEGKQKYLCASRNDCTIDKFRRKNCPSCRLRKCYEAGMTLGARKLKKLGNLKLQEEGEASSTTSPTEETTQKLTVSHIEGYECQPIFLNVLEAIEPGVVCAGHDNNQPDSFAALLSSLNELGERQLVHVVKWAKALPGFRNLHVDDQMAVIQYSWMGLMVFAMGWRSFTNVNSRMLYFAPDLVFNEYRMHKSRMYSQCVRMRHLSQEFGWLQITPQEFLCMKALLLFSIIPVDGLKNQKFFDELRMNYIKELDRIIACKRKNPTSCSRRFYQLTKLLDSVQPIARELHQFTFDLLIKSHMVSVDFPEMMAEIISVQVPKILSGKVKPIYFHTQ
Excerpt: The purpose of the AR Assays were to assess the binding affinity of the dimer to AR and subsequent protein degradation.
as §1, with “LNCaP,” for “22RV-1, LNCaP,”, “VA).” for “VA). 22RV-1 and”
Compounds were dissolved in DMSO (10 mM), serially diluted from 10 mM to 1.5 nM, and pre-incubated for 2 hours. Exponentially growing cells were seeded at 8×10^3 cells per well of 384 well plate (Corning, New York #356663). Cells were treated with compound for 48 hours. Following treatment, cells were fixed with 4% PFA (SolarBio Lifescience, Beijing, China) for 20 minutes, permeabilised in 100% ice-cold methanol (Merck, Darmstadt, Germany) for 10 minutes, and blocked with blocking buffer (LI-COR Biosciences Lincoln, NE) for 90 minutes. Cells were incubated with primary Androgen Receptor (D6F11) XP® Rabbit mAb antibody (CST #5153 Danvers, MA) at 1:1000 dilution overnight in blocking buffer (LI-COR, Lincoln, NE) at 4° C. Cells were washed in DPBS (Thermo Fisher Scientific, Waltham, MA) and incubated with secondary antibody AlexaFluor 488 goat anti rabbit (Invitrogen™ #A-11008 Waltham, MA) 1:1000 dilution, with Hoechst stain (Invitrogen™ Waltham, MA) 1:5000 dilution in blocking buffer (LI-COR Biosciences, Lincoln, NE) for 90 minutes. After final DPBS wash, 200 ul of DPBS was added to the cells, and signal read on Operetta (Revvity, Waltham, MA). Each data point was performed in duplicate for every experiment. A DC50 value was calculated from linear regression analysis of the plots.

IC50 [1] [nM] | DC50 (AR (Androgen Receptor)) [nM] | Structure (SMILES)
> 10000 | 100 to 500 | Cc1cc(C(=O)N(C)CCCOc2cccc3c2CN(C2CCC(=O)NC2=O)C3=O)ccc1B1O[C@H]2C[C@H]3C[C@H](C3(C)C)[C@@]2(CCCNc2ccc(C(=O)N[C@H]3CC[C@H](Oc4ccc(C#N)c(Cl)c4)CC3)cc2)O1 (mixture of isomers) [Example 23, 4-((3aR,4R,6R,7aS)-3a-(3-((4-((trans-4-(3-chloro-4-cyanophenoxy)cyclohexyl)carbamoyl)phenyl)amino)propyl)-5,5-dimethylhexahydro-4,6-methanobenzo[d][1,3,2]dioxaborol-2-yl)-N-(3-((2-(2,6-dioxopiperidin-3-yl)-1-oxoisoindolin-4-yl)oxy)propyl)-N,3-dimethylbenzamide]
> 10000 | 100 to 500 | Cc1ccc(C(=O)N(C)CCCOc2cccc3c2CN(C2CCC(=O)NC2=O)C3=O)cc1B1O[C@H]2C[C@H]3C[C@H](C3(C)C)[C@@]2(CCCNc2ccc(C(=O)N[C@H]3CC[C@H](Oc4ccc(C#N)c(Cl)c4)CC3)cc2)O1 (mixture of isomers) [Example 24, 3-((3aR,4R,6R,7aS)-3a-(3-((4-((trans-4-(3-chloro-4-cyanophenoxy)cyclohexyl)carbamoyl)phenyl)amino)propyl)-5,5-dimethylhexahydro-4,6-methanobenzo[d][1,3,2]dioxaborol-2-yl)-N-(3-((2-(2,6-dioxopiperidin-3-yl)-1-oxoisoindolin-4-yl)oxy)propyl)-N,4-dimethylbenzamide]
> 10000 | 100 to 500 | Cc1cc([C@@H](C(=O)N2C[C@H](O)C[C@H]2C(=O)NCc2ccc(Cl)cc2B2O[C@H]3C[C@H]4C[C@H](C4(C)C)[C@@]3(CCNc3ccc(C(=O)N[C@H]4CC[C@H](Oc5ccc(C#N)c(Cl)c5)CC4)cc3)O2)C(C)C)on1 (racemic) [Example 22, (2S,4R)—N-(4-chloro-2-((3aR,4R,6R,7aS)-3a-(2-((4-((trans-4-(3-chloro-4-cyanophenoxy)cyclohexyl)carbamoyl)phenyl)amino)ethyl)-5,5-dimethylhexahydro-4,6-methanobenzo[d][1,3,2]dioxaborol-2-yl)benzyl)-4-hydroxy-1-((S)-3-methyl-2-(3-methylisoxazol-5-yl)butanoyl)pyrrolidine-2-carboxamide]

Structure (SMILES) | IC50 [1] [nM] | DC50 (AR (Androgen Receptor)) [nM]
Cc1cc2c(cc1B1O[C@H]3C[C@H]4C[C@H](C4(C)C)[C@@]3(CCOc3ccc(N4C(=S)N(c5ccc(C#N)c(C(F)(F)F)c5)C(=O)C4(C)C)cc3)O1)CN(CCCOc1cccc3c1CN(C1CCC(=O)NC1=O)C3=O)C2=O (stereo partly drawn) [Example 21, 4-(3-(4-(2-((3aR,4R,6R,7aS)-2-(2-(3-((2-(2,6-dioxopiperidin-3-yl)-1-oxoisoindolin-4-yl)oxy)propyl)-6-methyl-1-oxoisoindolin-5-yl)-5,5-dimethyltetrahydro-4,6-methanobenzo[d][1,3,2]dioxaborol-3a(4H)-yl)ethoxy)phenyl)-4,4-dimethyl-5-oxo-2-thioxoimidazolidin-1-yl)-2-(trifluoromethyl)benzonitrile] | > 10000 | 100 to 500
